Results on 13 compounds are retold here after patent US11439623B2, “Method of modulating ribonucleotide reductase” (CASE WESTERN RESERVE UNIVERSITY, priority 2017, dated 2022).

Values joined by “and” are separate entries in the source; they are usually repeats but may differ in a detail not shown here. Equal values may be shown once. Read-outs that look alike come from different tables or passages of the source.

Series [1] concerns human pancreas ductal adenocarcinoma Panc cells (Panc1). In words: Cancer cell line growth inhibition assay (DNA content). The series is classed as cell-based. The note with it: for Cellular IC50s Panc 1: Table 1, triazole derivatives, one cell printed for both cell lines; for activity in cell growth inhibition: Panc1, statement in text. As to the method:
(§1) The growth inhibition assay was performed in the Preclinical Drug Testing Laboratory of the Case Comprehensive Cancer Center using a standardized protocol. Cell lines (human colon cancer HCT116 and human pancreas ductal adenocarcinoma Panc cells) were maintained in standard growth media; RPMI1640+10% FBS+2 mM glutamine+100 U/ml penicillin, 100 ug/ml streptomycin and shown to be negative for mycoplasma contamination using the MycoAlert™ Mycoplasma Detection kit (Lonza, Basel, Switzerland). Cell identity was verified by Short Tandem Repeat (STR) testing performed using the Promega StemElite kit, in the Genetic Resources Core Facility (GRCF) at Johns Hopkins University.
(§2) For growth inhibition assays, cells were harvested by trypsinization and seeded into 96-well tissue culture plates at 2500 cells/mL. The following day an equal volume of 2×-drug containing medium was added to each well. The cells were cultured for 3 additional days at 37° C. in a 5% CO2 humidified incubator. Cell growth was assessed by measuring DNA content per well using the method of Labarca and Paigen. Dye fluorescence was measured in a Perkin-Elmer 1420 Victor 3 Multilabel plate reader using 355 nm excitation and 460 nm emission.

The subject of series [2] is human colon cancer HCT116. The series is described as above. Type of series: cell-based. The note with it: for Cellular IC50s HCT-116: Table 1, triazole derivatives, one cell printed for both cell lines; for IC50: HCT-116; for activity in cell growth inhibition: HCT116, statement in text. The procedure:
as §1, §2

Series [3] concerns normal mobilized peripheral blood progenitor cells. The note with it: previously characterized; cited from earlier work.
For the next series, the target named is T1, hRRM1 hexamers (Homo sapiens, UniProt P23921).
T1 sequence (P23921 1-792): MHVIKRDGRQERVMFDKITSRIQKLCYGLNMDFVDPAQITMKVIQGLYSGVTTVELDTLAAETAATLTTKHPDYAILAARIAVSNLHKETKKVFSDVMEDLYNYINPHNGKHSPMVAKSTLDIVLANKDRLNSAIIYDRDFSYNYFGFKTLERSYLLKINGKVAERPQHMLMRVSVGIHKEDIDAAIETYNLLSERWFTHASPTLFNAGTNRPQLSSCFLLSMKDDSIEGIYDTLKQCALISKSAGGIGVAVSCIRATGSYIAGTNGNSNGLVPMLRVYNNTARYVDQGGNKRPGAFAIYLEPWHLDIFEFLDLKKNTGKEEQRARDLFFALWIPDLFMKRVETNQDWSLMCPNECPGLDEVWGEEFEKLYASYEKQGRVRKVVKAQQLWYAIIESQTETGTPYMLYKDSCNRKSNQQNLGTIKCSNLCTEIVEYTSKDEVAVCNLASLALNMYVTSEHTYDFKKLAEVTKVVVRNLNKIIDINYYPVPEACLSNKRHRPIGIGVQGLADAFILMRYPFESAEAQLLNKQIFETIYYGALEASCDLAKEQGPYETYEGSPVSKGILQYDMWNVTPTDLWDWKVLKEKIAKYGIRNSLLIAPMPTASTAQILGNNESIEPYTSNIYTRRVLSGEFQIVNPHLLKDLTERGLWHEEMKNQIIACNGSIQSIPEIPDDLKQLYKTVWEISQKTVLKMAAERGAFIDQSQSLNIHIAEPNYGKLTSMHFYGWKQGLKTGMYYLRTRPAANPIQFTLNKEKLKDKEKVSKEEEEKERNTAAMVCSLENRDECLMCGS
To be noted: background statement; cited from earlier work.

Where [4] appears, read: Homo sapiens, PANC-1, Panc1, Calcusyn fit, runs Oct. 21 and Oct. 24, 2016, read-out: Dm.
Setting [5] is: Homo sapiens, Calcusyn fit, runs Oct. 21 and Oct. 24, 2016, read-out: Dm.
Where [6] appears, read: Homo sapiens, PANC-1, Table 2, oxadiazoles, read-out: Cellular IC50s Panc 1.
[7] abbreviates: Homo sapiens, Table 2, oxadiazoles, read-out: Cellular IC50s HCT-116.

As for `COc1ccc2cc(-c3cn(Cc4ccccc4)nn3)ccc2c1`, the “Cellular IC50s Panc 1” value in series [1] is “No cytotoxicity”. Besides, the “Cellular IC50s HCT-116” value in series [2] was “No cytotoxicity”.
Turning to `COc1ccc2cc(-c3cn(CCc4ccc(O)cc4)nn3)ccc2c1`, the “Cellular IC50s Panc 1” value in series [1] is on record as “No cytotoxicity”. Moreover, the “Cellular IC50s HCT-116” value in series [2] is “No cytotoxicity”.
With `O=C(O)CC(c1ccccc1)n1cc(-c2c(O)ccc3ccccc23)nn1` (stereo not drawn), the “Cellular IC50s Panc 1” value in series [1] is recorded as “No cytotoxicity”. Also, in series [2], the “Cellular IC50s HCT-116” value was “No cytotoxicity”.
Take `C[C@@H]([C@H](O)c1ccccc1)n1cc(-c2c(O)ccc3ccccc23)nn1`: the “Cellular IC50s Panc 1” value in series [1] was “No cytotoxicity”. For the same compound, the “Cellular IC50s HCT-116” value in series [2] is on record as “No cytotoxicity”.
Take `Cc1c(-n2cc(-c3c(O)ccc4ccccc34)nn2)c(=O)n(-c2ccccc2)n1C`: in series [1], the “Cellular IC50s Panc 1” value is “No cytotoxicity”. For the same compound, in series [2], the “Cellular IC50s HCT-116” value is listed as “No cytotoxicity”.
Turning to `O=C(NN=Cc1c(O)ccc2ccccc12)c1ccccc1O` [NSAAH, Naphthyl Salicyl Acyl Hydrazone, reference compound], in series [3], the cytotoxicity result is recorded as “little measurable cytotoxicity”. For the same compound, the IC50 in series [1] (Panc1, Calcusyn fit, runs Oct. 21 and Oct. 24, 2016, listed as NSAAH (new), read-out: Dm) was 850 nM; in series [1] (Panc1, Calcusyn fit, runs Oct. 21 and Oct. 24, 2016, listed as NSAAH (old), read-out: Dm) it was 550 nM and 480 nM; in series [2] (Calcusyn fit, runs Oct. 21 and Oct. 24, 2016, listed as NSAAH (new), read-out: Dm) it was 176 nM; in series [2] (Calcusyn fit, runs Oct. 21 and Oct. 24, 2016, listed as NSAAH (old), read-out: Dm) it was 234 nM and 166 nM.
`NC1(c2cn([C@H](c3ccccc3)[C@H](O)c3ccccc3)nn2)CCCCC1` [NSAAT E]: the IC50 was over 10000 nM in series [1] (setting [4]) and 66800 nM in series [2] (setting [5]).
For `O=C(c1c(O)ccc2ccccc12)n1cc(-c2cccnc2)nn1` [NSAAT F], the IC50 in series [1] (setting [4]) and in series [2] (setting [5]) was over 10000 nM in each case.
With `Oc1ccccc1-c1nnc(-c2c(O)ccc3ccccc23)o1` [Oxa A], the IC50 in series [1] (setting [4]) was 53600 nM; in series [1] (setting [6]) it was 7000 nM; in series [2] (setting [7]), 3200 nM; in series [2] (setting [5]), 6890 nM. Further, the “activity in cell growth inhibition” value in series [1] and in series [2] was “low micromolar range” each time.
Turning to `Oc1ccc2ccccc2c1-c1nnc(-c2cccnc2)o1` [Oxa F], the IC50 is 1920 nM in series [1] (setting [4]), 2500 nM in series [1] (setting [6]), 1200 nM in series [2] (setting [7]) and 1410 nM in series [2] (setting [5]). Also, the “activity in cell growth inhibition” value in series [1] and in series [2] was “low micromolar range” throughout.
Consider `Nc1nc(Cl)nc2c1ncn2[C@@H]1O[C@H](CO)[C@@H](O)[C@@H]1F` [clofarabine, 2′-fluro-2′-deoxyarabinofuranosyl-2-chloroadenine], for which the binding affinity entry on hRRM1 hexamers is on record as “nanomolar affinity”.
On to `NC1(c2cn([C@H](c3ccccc3)[C@H](O)c3ccccc3)nn2)CCCCC1` [drawing 59], for which the “Cellular IC50s Panc 1” value in series [1] was “No cytotoxicity”. Also, in series [2], the “Cellular IC50s HCT-116” value is “No cytotoxicity”.
As for `O=C(c1c(O)ccc2ccccc12)n1cc(-c2cccnc2)nn1` [drawing 60], the “Cellular IC50s Panc 1” value in series [1] is listed as “No cytotoxicity”. The “Cellular IC50s HCT-116” value in series [2] was “No cytotoxicity”.
